Assay results from patent US12221481B2, “CD19 binding molecules and uses thereof” (Novartis AG, priority 2019, dated 2025).

Assays:
Karpas422 target cells = assay: Re-challenge RTCC assay, Karpas 422; type: cell-based, human; settings: last re-challenge
Method: OCI-LY-19 and Karpas422 target cells stably expressing firefly luciferase were plated in a Costar 6 well plate in T Cell Media (TCM). PBMCs previously isolated and cryopreserved from 2 Leukopak donors were thawed and Pan T cells were isolated (as described earlier). […] The plates were incubated for 4 days for OCI-LY-19 and 5 days for Karpas 422 cells. At the end of incubation, the killing of target cells was determined using the luminescence signal. The absolute T cell counts from each antibody treated condition was also determined. For the next round of rechallenge, it was ensured that the killing of target cells was equivalent across various antibody conditions. […] Additionally, a dose titration RTCC at a E:T of 1:1 and a concentration range of 2 nM-0.000001 nM was set-up using T cells from the different antibody treated conditions with a 4 day incubation used for each cell line. The killing of target cells was determined using the luminescence signal to generate dose response curves. At the end of the challenge, the above process was repeated once more for Karpas 422 and twice more for OCI-LY-19 cells.

T cells = assay: TBM and BBM mediated T cell proliferation (Example 20); type: cell-based, human; settings: in the presence of OCI-LY-19 and Toledo cells
Method: Briefly, OCI-LY-19, Karpas422, and Toledo target cells stably expressing firefly luciferase were plated in a 96 well plate in T Cell Media (TCM) (RPMI-1640, ThermoFisher Scientific, Cat #11875-085), 10% FBS (Seradigm, Cat #1500-500), 1% L-Glutamine (Thermo Fisher Scientific, Cat #25830-081), 1% Non Essential Amino Acids (Thermo Fisher Scientific, Cat #11140-050), 1% Pen/Strep (Thermo Fisher Scientific, Cat #15070063), 1% HEPES (Thermo Fisher Scientific, Cat #15630080), Sodium Pyruvate (Thermo Fisher Scientific, Cat #11360-070), 0.1% Beta-mercaptoethanol (Thermo Fisher Scientific, Cat #21985-023)]. PBMCs previously isolated and cryopreserved from 2 Leukopak donors were thawed and Pan T cells were isolated (as described earlier). Isolated T cells were labelled with 5 μM Cell Trace Violet (CTV) (Thermo Fisher Scientific, Cat #C34557) following the manufacturer's protocol and were co-cultured with target cells at an E:T ratio of 1:3. A dilution series of CD3med TSP1, CD3hi TSP1, CD3hi BSP1, CD3hi TSP1C, and blinatumomab ranging from 2.5 nM-0.0006 nM was added to cells and the plates were incubated in a 5% CO2, 37° C. incubator for 96 hrs. […]

blinatumomab: bispecific T cell engager, or BiTE, that binds to both CD19 and CD3 but lacks an Fc domain [reference compound]
maximum lysis (Karpas422 target cells): higher maximum lysis than CD3hi TSP1
T cell proliferation, potency compared between constructs (T cells): most potent T cell proliferation
